Data on 2 molecules can be found in US20260263624A1, “COMBINATION OF ANTIBODY-DRUG CONJUGATE AND CANCER THERAPY, AND USE THEREOF” (GENEQUANTUM HEALTHCARE (SUZHOU) CO., LTD., priority 2023, published 2026).

For experiment [1], the system named is BT-474 cells (breast cancer HER2-high CDX model). Nature of the experiment: In vivo efficacy of GQ01 with chemotherapies in human breast cancer CDX model, BT-474 (Example 5). Further details: species or system BALB/c nude mice. The following applies: GQ01 5 mg/kg single dose; for TGI (%): day 25; for Tumor volume (mm^3), Mean ± SEM: end day (day 25). The method, then: I. Breast cancer tumor cells were passaged in vivo from BT-474 cells (ATCC, Lot #HTB-20). The cells in exponential growth stage were collected and counted for tumor inoculation. 0.2 mL of matrix gel buffer (PBS: Matrigel=1:1) was used to subcutaneously inject 2×10^6 cells into the right flank of SPF female BALB/c nude mice aged 6-8 weeks. Four days before cell inoculation, BALB/c nude mice had been subcutaneously inoculated with estrogen tablet.
II. 10 days after inoculation, the tumor diameter was measured with a caliper and the tumor volume was calculated according to the formula V=0.5 a×b2 (wherein a is the long diameter of the tumor and b is the short diameter of the tumor). […] Each group included 6 mice. The day of first administration was defined as day 0. […] The tumor volume of mice in each group was measured twice a week.

The subject of experiment [2] is HCC1954 cells (breast cancer HER2-high CDX model). Nature of the experiment: In vivo efficacy of GQ01 with chemotherapies in human breast cancer CDX model, HCC1954 (Example 6). As to conditions: for Tumor volume (mm^3), Mean ± SEM: end day (day 32). Further details: species or system BALB/c nude mice. On the procedure:
I. HCC1954 cells in exponential growth stage were collected and counted for tumor inoculation. 0.2 mL of matrix gel buffer (PBS: Matrigel=1:1) was used to subcutaneously inject 1×10^6 cells into the right flank of SPF female BALB/c nude mice aged 6-8 weeks.
II. 9 days after inoculation, the tumor diameter was measured with a caliper and the tumor volume was calculated according to the formula V=0.5 a×b2 (wherein a is the long diameter of the tumor and b is the short diameter of the tumor). […] Each group included 6 mice. The day of first administration was defined as day 0. […] The tumor volume of mice in each group was measured twice a week.

Setting [3] is: capecitabine 300 mg/kg QD 2 weeks, combination 5 + 300 mg/kg.
[4] abbreviates: capecitabine 300 mg/kg QD 2 weeks, combination 5 + 300 mg/kg, listed as capecitabine.
Setting [5] is: paclitaxel 10 mg/kg BIW 4 weeks, combination 5 + 10 mg/kg.
Setting [6] is: paclitaxel 10 mg/kg BIW 4 weeks, combination 5 + 10 mg/kg, listed as paclitaxel.

Take `CCCCCOC(=O)Nc1nc(=O)n([C@@H]2O[C@H](C)[C@@H](O)[C@H]2O)cc1F` [Capecitabine, capecitabine]: the “TGI (%)” value was determined as 21.01% in experiment [1] (setting [3]); 21.01% in experiment [1] (setting [4]); 29.05% in experiment [2] (text: day 32, footnote: day 25, table prints GQ01 5 mg/kg and 5 + 300 mg/kg, text GQ01 2 mg/kg single dose, capecitabine 300 mg/kg QD 2 weeks); 29.05% in experiment [2] (text: day 32, footnote: day 25, table prints GQ01 5 mg/kg and 5 + 300 mg/kg, text GQ01 2 mg/kg single dose, capecitabine 300 mg/kg QD 2 weeks, listed as capecitabine). Besides, the “Tumor volume (mm^3), Mean ± SEM” value in experiment [1] (setting [3]) was 858 ± 280 mm^3; in experiment [1] (setting [4]) it was 858 mm^3; in experiment [2] (table prints GQ01 5 mg/kg and 5 + 300 mg/kg, text GQ01 2 mg/kg single dose, capecitabine 300 mg/kg QD 2 weeks), 1,183 ± 222 mm^3; in experiment [2] (table prints GQ01 5 mg/kg and 5 + 300 mg/kg, text GQ01 2 mg/kg single dose, capecitabine 300 mg/kg QD 2 weeks, listed as capecitabine), 1183 mm^3.
As to `CC(=O)O[C@H]1C(=O)[C@@]2(C)[C@H]([C@H](OC(=O)c3ccccc3)[C@]3(O)C[C@H](OC(=O)[C@H](O)[C@@H](NC(=O)c4ccccc4)c4ccccc4)C(C)=C1C3(C)C)[C@]1(OC(C)=O)CO[C@@H]1C[C@@H]2O` [Paclitaxel, paclitaxel], the “TGI (%)” value in experiment [1] (setting [5]) came to 58.54%; in experiment [1] (setting [6]), 58.54%; in experiment [2] (day 32, GQ01 2 mg/kg single dose, paclitaxel 10 mg/kg BIW 4 doses, combination 2 + 10 mg/kg, trastuzumab 5 + pertuzumab 5 (single dose) + paclitaxel 10 mg/kg), 26.60%; in experiment [2] (day 32, GQ01 2 mg/kg single dose, paclitaxel 10 mg/kg BIW 4 doses, combination 2 + 10 mg/kg, trastuzumab 5 + pertuzumab 5 (single dose) + paclitaxel 10 mg/kg, listed as paclitaxel), 26.60%. Also, the “Tumor volume (mm^3), Mean ± SEM” value in experiment [1] (setting [5]) is recorded as 520 ± 87 mm^3; in experiment [1] (setting [6]), 520 mm^3; in experiment [2] (GQ01 2 mg/kg single dose, paclitaxel 10 mg/kg BIW 4 doses, combination 2 + 10 mg/kg, trastuzumab 5 + pertuzumab 5 (single dose) + paclitaxel 10 mg/kg) it was 1,219 ± 124 mm^3; in experiment [2] (GQ01 2 mg/kg single dose, paclitaxel 10 mg/kg BIW 4 doses, combination 2 + 10 mg/kg, trastuzumab 5 + pertuzumab 5 (single dose) + paclitaxel 10 mg/kg, listed as paclitaxel), 1219 mm^3.
